PubChem BioAssay AID1963826 (Molecular Pharmacology Branch, DTP, NCI, 2024)

Test system: 926638-142-R-J1-PDC complex spheroid viability
Assay: Anticancer human tumor 926638-142-R-J1-PDC patient-derived endometrial carcinoma cell line growth inhibition [POLQ]
Conditions: for IC50: curve of first compound; for viability, T/C: stronger effect = lower value
How it was run: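 PDC + HUVEC + MSC complex spheroids; POLQ inhibitors ± partner drugs; top conc. at/near clinical Cmax, else 10 microM (SN-38 1 microM), half-log dilutions; 37 degrees C, 5% CO2.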

[1] = second compound 0.0316 µM, first compound 0.0316 µM
[2] = second compound 0.0316 µM, first compound 0.1 µM
[3] = second compound 0.0316 µM, first compound 0.316 µM
[4] = second compound 0.0316 µM, first compound 1 µM
[5] = second compound 0.0316 µM, first compound 3.16 µM
[6] = second compound 0.0316 µM, first compound 10 µM
[7] = second compound 0.1 µM, first compound 0.0316 µM
[8] = second compound 0.1 µM, first compound 0.1 µM
[9] = second compound 0.1 µM, first compound 0.316 µM
[10] = second compound 0.1 µM, first compound 1 µM
[11] = second compound 0.1 µM, first compound 3.16 µM
[12] = second compound 0.1 µM, first compound 10 µM
[13] = second compound 0.316 µM, first compound 0.0316 µM
[14] = second compound 0.316 µM, first compound 0.1 µM
[15] = second compound 0.316 µM, first compound 0.316 µM
[16] = second compound 0.316 µM, first compound 1 µM
[17] = second compound 0.316 µM, first compound 3.16 µM
[18] = second compound 0.316 µM, first compound 10 µM
[19] = second compound 1 µM, first compound 0.0316 µM
[20] = second compound 1 µM, first compound 0.1 µM
[21] = second compound 1 µM, first compound 0.316 µM
[22] = second compound 1 µM, first compound 1 µM
[23] = second compound 1 µM, first compound 3.16 µM
[24] = second compound 1 µM, first compound 10 µM
[25] = second compound 3.16 µM, first compound 0.0316 µM
[26] = second compound 3.16 µM, first compound 0.1 µM
[27] = second compound 3.16 µM, first compound 0.316 µM
[28] = second compound 3.16 µM, first compound 1 µM
[29] = second compound 3.16 µM, first compound 3.16 µM
[30] = second compound 3.16 µM, first compound 10 µM
[31] = second compound 10 µM, first compound 0.0316 µM
[32] = second compound 10 µM, first compound 0.1 µM
[33] = second compound 10 µM, first compound 0.316 µM
[34] = second compound 10 µM, first compound 1 µM
[35] = second compound 10 µM, first compound 3.16 µM
[36] = second compound 10 µM, first compound 10 µM
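Further: spheroids exposed to drugs for one week before readout.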
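Wherever viability, T/C is given: percent viability relative to DMSO vehicle control wells set as 100%.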

Compound: C=CC(=O)N1CCN(c2nc(=O)n(-c3c(C)ccnc3C(C)C)c3nc(-c4c(O)cccc4F)c(F)cc23)C(C)C1 (stereo not drawn) + Cc1cccc(N(C)C(=O)C2C(O)CCN2c2nc(C)cc(C(F)(F)F)c2C#N)c1
- IC50 (second compound 0.0316 µM): > 10 µM
- IC50 (second compound 0.1 µM): > 10 µM
- IC50 (second compound 0.316 µM): > 10 µM
- IC50 (second compound 1 µM): > 10 µM
- IC50 (second compound 3.16 µM): 6.59 µM
- IC50 (second compound 10 µM): > 10 µM
- viability, T/C [1]: 84.5%
- viability, T/C [2]: 78%
- viability, T/C [3]: 67.2%
- viability, T/C [4]: 76.1%
- viability, T/C [5]: 66%
- viability, T/C [6]: 59.1%
- viability, T/C [7]: 82.8%
- viability, T/C [8]: 78.7%
- viability, T/C [9]: 94%
- viability, T/C [10]: 76.6%
- viability, T/C [11]: 70.8%
- viability, T/C [12]: 65.5%
- viability, T/C [13]: 97.4%
- viability, T/C [14]: 90.3%
- viability, T/C [15]: 91.5%
- viability, T/C [16]: 74.2%
- viability, T/C [17]: 70%
- viability, T/C [18]: 55.6%
- viability, T/C [19]: 74.8%
- viability, T/C [20]: 84.7%
- viability, T/C [21]: 79.2%
- viability, T/C [22]: 69.9%
- viability, T/C [23]: 72.7%
- viability, T/C [24]: 49.6%
- viability, T/C [25]: 91.8%
- viability, T/C [26]: 82.7%
- viability, T/C [27]: 84.7%
- viability, T/C [28]: 86%
- viability, T/C [29]: 74.1%
- viability, T/C [30]: 36.1%
- viability, T/C [31]: 90.7%
- viability, T/C [32]: 80.8%
- viability, T/C [33]: 94.9%
- viability, T/C [34]: 77%
- viability, T/C [35]: 78%
- viability, T/C [36]: 52.9%

Compound: CC(C)n1c(=O)n(C)c2cnc3cc(F)c(-c4ccc(OCCCN5CCCCC5)nc4)cc3c21 + Cc1cccc(N(C)C(=O)C2C(O)CCN2c2nc(C)cc(C(F)(F)F)c2C#N)c1
- IC50 (second compound 0.0316 µM): > 10 µM
- IC50 (second compound 0.1 µM): > 10 µM
- IC50 (second compound 0.316 µM): > 10 µM
- IC50 (second compound 1 µM): > 10 µM
- IC50 (second compound 3.16 µM): > 10 µM
- IC50 (second compound 10 µM): 9.83 µM
- viability, T/C [1]: 86.5%
- viability, T/C [2]: 88.5%
- viability, T/C [3]: 87.6%
- viability, T/C [4]: 88.9%
- viability, T/C [5]: 94.1%
- viability, T/C [6]: 62.1%
- viability, T/C [7]: 94.6%
- viability, T/C [8]: 81.8%
- viability, T/C [9]: 103%
- viability, T/C [10]: 86.7%
- viability, T/C [11]: 79.5%
- viability, T/C [12]: 50.9%
- viability, T/C [13]: 104%
- viability, T/C [14]: 123%
- viability, T/C [15]: 89.7%
- viability, T/C [16]: 102%
- viability, T/C [17]: 93.7%
- viability, T/C [18]: 52.3%
- viability, T/C [19]: 92.8%
- viability, T/C [20]: 88.9%
- viability, T/C [21]: 78.5%
- viability, T/C [22]: 102%
- viability, T/C [23]: 107%
- viability, T/C [24]: 72.3%
- viability, T/C [25]: 89.5%
- viability, T/C [26]: 95.8%
- viability, T/C [27]: 92%
- viability, T/C [28]: 104%
- viability, T/C [29]: 74%
- viability, T/C [30]: 65.2%
- viability, T/C [31]: 103%
- viability, T/C [32]: 89.2%
- viability, T/C [33]: 107%
- viability, T/C [34]: 87%
- viability, T/C [35]: 76.1%
- viability, T/C [36]: 49.1%

Compound: CCc1cc2c(N3CCc4c(cc(Cn5ccnc5)cc4-c4cn(C)nc4C(F)(F)F)C3=O)ccnc2c(OC)n1 + Cc1cccc(N(C)C(=O)C2C(O)CCN2c2nc(C)cc(C(F)(F)F)c2C#N)c1
- IC50 (second compound 0.0316 µM): 0.287 µM
- IC50 (second compound 0.1 µM): 0.356 µM
- IC50 (second compound 0.316 µM): 1.29 µM
- IC50 (second compound 1 µM): 0.346 µM
- IC50 (second compound 3.16 µM): 0.483 µM
- IC50 (second compound 10 µM): 0.379 µM
- viability, T/C [1]: 76.8%
- viability, T/C [2]: 74.5%
- viability, T/C [3]: 46.7%
- viability, T/C [4]: 44.8%
- viability, T/C [5]: 38.6%
- viability, T/C [6]: 29.6%
- viability, T/C [7]: 112%
- viability, T/C [8]: 70.1%
- viability, T/C [9]: 48.3%
- viability, T/C [10]: 45.5%
- viability, T/C [11]: 41.8%
- viability, T/C [12]: 29.1%
- viability, T/C [13]: 70.8%
- viability, T/C [14]: 66.1%
- viability, T/C [15]: 59%
- viability, T/C [16]: 55%
- viability, T/C [17]: 40%
- viability, T/C [18]: 26.7%
- viability, T/C [19]: 83.4%
- viability, T/C [20]: 59.4%
- viability, T/C [21]: 47%
- viability, T/C [22]: 52.7%
- viability, T/C [23]: 37.3%
- viability, T/C [24]: 33%
- viability, T/C [25]: 87.1%
- viability, T/C [26]: 70.9%
- viability, T/C [27]: 55.5%
- viability, T/C [28]: 40.9%
- viability, T/C [29]: 32.1%
- viability, T/C [30]: 25.7%
- viability, T/C [31]: 85.9%
- viability, T/C [32]: 59.4%
- viability, T/C [33]: 58.4%
- viability, T/C [34]: 36.7%
- viability, T/C [35]: 34.2%
- viability, T/C [36]: 23.6%

Compound: COc1cc2cc(C(=O)CCC(=O)O)sc2cc1OC + Cc1cccc(N(C)C(=O)C2C(O)CCN2c2nc(C)cc(C(F)(F)F)c2C#N)c1
- IC50 (second compound 0.0316 µM): > 10 µM
- IC50 (second compound 0.1 µM): > 10 µM
- IC50 (second compound 0.316 µM): > 10 µM
- IC50 (second compound 1 µM): > 10 µM
- IC50 (second compound 3.16 µM): > 10 µM
- IC50 (second compound 10 µM): > 10 µM
- viability, T/C [1]: 101%
- viability, T/C [2]: 92.9%
- viability, T/C [3]: 110%
- viability, T/C [4]: 96.2%
- viability, T/C [5]: 98.3%
- viability, T/C [6]: 77.4%
- viability, T/C [7]: 104%
- viability, T/C [8]: 98.4%
- viability, T/C [9]: 99.7%
- viability, T/C [10]: 87.1%
- viability, T/C [11]: 83.2%
- viability, T/C [12]: 80.3%
- viability, T/C [13]: 119%
- viability, T/C [14]: 115%
- viability, T/C [15]: 109%
- viability, T/C [16]: 84.4%
- viability, T/C [17]: 98.2%
- viability, T/C [18]: 88.7%
- viability, T/C [19]: 99.8%
- viability, T/C [20]: 111%
- viability, T/C [21]: 76.9%
- viability, T/C [22]: 85.8%
- viability, T/C [23]: 94%
- viability, T/C [24]: 90.1%
- viability, T/C [25]: 79.5%
- viability, T/C [26]: 95.5%
- viability, T/C [27]: 99.5%
- viability, T/C [28]: 76.5%
- viability, T/C [29]: 110%
- viability, T/C [30]: 94.6%
- viability, T/C [31]: 79.5%
- viability, T/C [32]: 95.7%
- viability, T/C [33]: 94.5%
- viability, T/C [34]: 87.2%
- viability, T/C [35]: 104%
- viability, T/C [36]: 79.9%
